What all share (format): cell-based
Assay [1] concerns Acinetobacter baumannii ATCC 17978. The experiment in a line: microbe, parasite or virus in culture. The settings on record: for Potentiation fold: ratio MICcompound/MICcompound+polymyxin E; for MIC in presence of colistin: with 0.25xMIC polymyxin E1 (0.25 mg/L); for MIC: Acinetobacter baumannii, ATCC17978. On the procedure:
(§1) Growth inhibition or killing of bacteria was investigated using conventional methods widely described in the scientific literature. Parameters such as the Minimum Inhibitory Concentration (MIC) were determined as described in Clinical Laboratory Standard Institute (CLSI) document M07 “Methods for Dilution Antimicrobial Susceptibility Tests for Bacteria That Grow Aerobically, 11th Edition” (2018). Synergistic activity of the compounds described in the present specification were determined by measuring the variation of the MIC's compound in the absence and presence of a sub-inhibitory concentration of a suitable antibacterial agent, such as polymyxin E1. Furthermore, the Fractional Inhibitory Concentrations (FICs) were measured using a chequerboard analysis to determine the average FIC index (FICI), whose value is known to characterize the interaction between two compounds and/or drugs (≤0.5, synergistic interaction; >0.5 and <2, no interaction, additive effect; ≥2, antagonistic interaction). Furthermore, the selectivity of the compounds was investigated by measuring their cytotoxic effect on mammalian cell lines (e.g. HeLa cells).
(§2) Several methods were used to investigate the synergistic activity of the compounds, including (a) the determination of the MIC in the presence of a sub-inhibitory concentration of a suitable antibacterial agent, (b) the determination of the average FICI using a chequerboard analysis and (c) the time-kill curve analysis of a suitable agent (at a sub-inhibitory concentration) in the absence and presence of the pyrazolo[4,3-b]pyridin-6-carboxamide compound at a fixed concentration of 2 or 8 mg/L.
(§3) The MIC of the compound was determined alone and in the presence of a fixed and sub-inhibitory concentration of a suitable antibacterial agent of the polymyxin class, such as polymyxin E1 (colistin). The potentiation fold was computed as the ratio MICcompound/MICcompound+polymyxin E. Tested organisms included Escherichia coli CCUG^TKlebsiella pneumoniae ATCC 13833 and Acinetobacter baumannii ATCC 17978, which show a colistin MIC of 0.5, 0.5 and 1 mg/L, respectively.

The subject of assay [2] is Escherichia coli CCUG^T. Put plainly: microbe, parasite or virus in culture. The settings on record: for Potentiation fold: ratio MICcompound/MICcompound+polymyxin E; for MIC in presence of colistin: with 0.25xMIC polymyxin E1 (0.12 mg/L); for MIC: Escherichia coli. On the procedure:
as §1, §2, §3

The subject of assay [3] is Klebsiella pneumoniae ATCC 13833. The experiment in a line: microbe, parasite or virus in culture. The settings on record: for Potentiation fold: ratio MICcompound/MICcompound+polymyxin E; for MIC in presence of colistin: with 0.25xMIC polymyxin E1 (0.12 mg/L); for MIC: Klebsiella pneumoniae, ATCC13833. As to the method: as §1, §2, §3
The test system of assay [4] is Bacillus subtilis ATCC 6633. Put plainly: MIC, broth microdilution (direct antibacterial activity). The settings on record: ATCC6633, B. subtilis ATCC 6633, compound alone, 18-24 h, read-out: MIC. On the procedure: as §1
(§4) The MIC values were determined using the broth microdilution method as described in document M07 using Mueller-Hinton broth as culture medium and an initial bacterial inoculum size of 5×10^5 CFU/mL, with a final volume of 100 μL per well in a 96-well microplate. Bacterial strains were Bacillus subtilis ATCC 6633, Enterococcus faecalis ATCC 29212, Streptococcus pyogenes ATCC 12344 and Staphylococcus aureus ATCC 25923. The tested compound concentration ranged from 512 to 0.25 mg/L. Plates were incubated for 18-24 hours at 35±2° C. prior to results analysis.
Background: In broth dilution the organism is exposed to a series of concentrations in liquid medium.

Assay [5] deals with Enterococcus faecalis ATCC 29212. Described as above. The settings on record: ATCC29212, E. faecalis ATCC 29212, compound alone, 18-24 h, read-out: MIC. On the procedure: as §1, §4
Assay [6] deals with Staphylococcus aureus ATCC 25923. Described as above. The settings on record: ATCC25923, S. aureus ATCC 25923, compound alone, 18-24 h, read-out: MIC. On the procedure: as §1, §4
The test system of assay [7] is Streptococcus pyogenes ATCC 12344. Described as above. The settings on record: ATCC12344, S. pyogenes ATCC 12344, compound alone, 18-24 h, read-out: MIC. As to the method:
as §1, §4

[8] abbreviates: A. baumannii ATCC 17978, compound alone, read-out: MIC.
The mark [9] stands for this setting: E. coli CCUG^T, compound alone, read-out: MIC.
Setting [10] is: K. pneumoniae ATCC 13833, compound alone, read-out: MIC.

Ten compounds from patent US12358919B2, “Antibacterial compounds” (Universita' degli Studi di Siena, priority 2019, dated 2025) can be followed below.

The structures appear in SMILES notation. Where two headings read alike, the source gives them in different places.

With `CCCCn1c(=O)c(C(=O)NC23CC4CC(CC(O)(C4)C2)C3)c(O)c2nn(C)cc21` [Ia, 4-(1-Butyl)-4,5-dihydro-7-hydroxy-N-(1-hydroxyadamantan-3-yl)-2-methyl-5-oxo-2H-pyrazolo[4,3-b]pyridin-6-carboxamide], the values for the Potentiation fold in assay [1] (A. baumannii ATCC 17978), in assay [2] (E. coli CCUG^T) and in assay [3] (K. pneumoniae ATCC 13833) were at least 16, at least 16 and at least 8, respectively. Further, the “MIC in presence of colistin” value in assay [1] (A. baumannii ATCC 17978) came out at 32 µg/mL; in assay [2] (E. coli CCUG^T) it was 32 µg/mL; in assay [3] (K. pneumoniae ATCC 13833) it was 64 µg/mL. Further, the MIC in assay [1], in assay [2] and in assay [3] was above 512 µg/mL throughout.
Consider `CC(C)n1c(=O)c(C(=O)NC2CCCc3ccccc32)c(O)c2nn(C)cc21` (centres unmarked) [Iaa, 4,5-Dihydro-7-hydroxy-2-methyl-5-oxo-4-(2-propyl)-N-(1,2,3,4-tetrahydro-1-naphthyl)-2H-pyrazolo[4,3-b]pyridin-6-carboxamide], for which the MIC in assay [4] was 16 µg/mL; in assay [5] it was 64 µg/mL; in assay [6], 64 µg/mL; in assay [7], 32 µg/mL; in assay [1] (setting [8]), above 512 µg/mL; in assay [2] (setting [9]), above 512 µg/mL. Also, the MIC in assay [3] (setting [10]) is above 512 µg/mL. Also, the Potentiation fold in assay [1] (A. baumannii ATCC 17978) is recorded as at least 32; in assay [2] (E. coli CCUG^T), at least 32; in assay [3] (K. pneumoniae ATCC 13833), at least 16. In addition, the “MIC in presence of colistin” value in assay [1] (A. baumannii ATCC 17978) stood at 16 µg/mL; in assay [2] (E. coli CCUG^T), 16 µg/mL; in assay [3] (K. pneumoniae ATCC 13833), 32 µg/mL.
On to `CC(C)n1c(=O)c(C(=O)NC(c2ccccc2)c2ccccc2)c(O)c2nn(C)cc21` [Iab, 4,5-Dihydro-N-(diphenylmethyl)-7-hydroxy-2-methyl-5-oxo-4-(2-propyl)-2H-pyrazolo[4,3-b]pyridin-6-carboxamide], for which the MIC in assay [4] is 16 µg/mL; in assay [5] it was 32 µg/mL; in assay [6] it was 32 µg/mL; in assay [7], 32 µg/mL; in assay [1] (setting [8]) it was above 512 µg/mL; in assay [2] (setting [9]), above 512 µg/mL. Also, in assay [3] (setting [10]), the MIC was above 512 µg/mL. For the same compound, the Potentiation fold in assay [1] (A. baumannii ATCC 17978), in assay [2] (E. coli CCUG^T) and in assay [3] (K. pneumoniae ATCC 13833) was at least 32 throughout. Moreover, the “MIC in presence of colistin” value in assay [1] (A. baumannii ATCC 17978), in assay [2] (E. coli CCUG^T) and in assay [3] (K. pneumoniae ATCC 13833) was 16 µg/mL each time.
Turning to `CCCCn1c(=O)c(C(=O)NCc2ccc(F)cc2)c(O)c2nn(C)cc21` [Iac, 4-(1-Butyl)-4,5-dihydro-N-[(4-fluorophenyl)methyl]-7-hydroxy-2-methyl-5-oxo-2H-pyrazolo[4,3-b]pyridin-6-carboxamide], the MIC in assay [4] was 64 µg/mL; in assay [5], 64 µg/mL; in assay [6], 128 µg/mL; in assay [7], 32 µg/mL.
Turning to `CCCCn1c(=O)c(C(=O)N[C@@H](Cc2ccccc2)C(=O)OC(C)(C)C)c(O)c2nn(C)cc21` [Iad, 1,1-Dimethylethyl (S)-2-[4-(1-butyl)-4,5-dihydro-7-hydroxy-2-methyl-5-oxo-2H-pyrazolo[4,3-b]pyridin-6-carboxamido]-3-phenylpropanoate], the MIC was 32 µg/mL in assay [4]; 128 µg/mL in assay [5]; 256 µg/mL in assay [6]; 64 µg/mL in assay [7]; above 512 µg/mL in assay [1] (setting [8]); above 512 µg/mL in assay [2] (setting [9]). In assay [3] (setting [10]), the MIC was above 512 µg/mL. For the same compound, the Potentiation fold in assay [1] (A. baumannii ATCC 17978) is listed as at least 4; in assay [2] (E. coli CCUG^T) it was at least 16; in assay [3] (K. pneumoniae ATCC 13833), at least 16. For the same compound, the “MIC in presence of colistin” value in assay [1] (A. baumannii ATCC 17978) stood at 128 µg/mL; in assay [2] (E. coli CCUG^T), 32 µg/mL; in assay [3] (K. pneumoniae ATCC 13833), 32 µg/mL.
Turning to `CCCCn1c(=O)c(C(=O)NC2CCCC2)c(O)c2nn(C)cc21` [Iag, 4-(1-Butyl)-N-cyclopentyl-4,5-dihydro-7-hydroxy-2-methyl-5-oxo-2H-pyrazolo-[4,3-b]pyridin-6-carboxamide], the Potentiation fold is reported as at least 4 in assay [1] (A. baumannii ATCC 17978), at least 16 in assay [2] (E. coli CCUG^T) and at least 8 in assay [3] (K. pneumoniae ATCC 13833). The entries for the “MIC in presence of colistin” value in assay [1] (A. baumannii ATCC 17978), in assay [2] (E. coli CCUG^T) and in assay [3] (K. pneumoniae ATCC 13833) were 128 µg/mL, 32 µg/mL and 64 µg/mL, respectively. For the same compound, the MIC in assay [1] (setting [8]), in assay [2] (setting [9]) and in assay [3] (setting [10]) was above 512 µg/mL in each case.
Consider `CCCCCn1c(=O)c(C(=O)NC23CC4CC(CC(O)(C4)C2)C3)c(O)c2nn(CCO)cc21` [Io, 4,5-Dihydro-7-hydroxy-N-(1-hydroxyadamantan-3-yl)-2-(2-hydroxyethyl)-5-oxo-4-(1-pentyl)-2H-pyrazolo[4,3-b]pyridin-6-carboxamide], for which the values for the Potentiation fold in assay [1] (A. baumannii ATCC 17978) and in assay [3] (K. pneumoniae ATCC 13833) were at least 128 and at least 64, respectively. For the same compound, the figures for the “MIC in presence of colistin” value in assay [1] (A. baumannii ATCC 17978) and in assay [3] (K. pneumoniae ATCC 13833) were 4 µg/mL and 8 µg/mL, respectively. In addition, the MIC in assay [1], in assay [2] and in assay [3] was above 512 µg/mL in each case.
As for `CCCn1c(=O)c(C(=O)NC23CC4CC(CC(C4)C2)C3)c(O)c2nn(CCOC(C)=O)cc21` [Ir, 2-(2-Acetoxyethyl)-N-(adamantan-1-yl)-4,5-dihydro-7-hydroxy-5-oxo-4-(1-propyl)-2H-pyrazolo[4,3-b]pyridin-6-carboxamide], the Potentiation fold is recorded as at least 16 in assay [1] (A. baumannii ATCC 17978), at least 8 in assay [2] (E. coli CCUG^T) and at least 8 in assay [3] (K. pneumoniae ATCC 13833). Besides, the “MIC in presence of colistin” value in assay [1] (A. baumannii ATCC 17978) was 32 µg/mL; in assay [2] (E. coli CCUG^T) it was 64 µg/mL; in assay [3] (K. pneumoniae ATCC 13833) it was 64 µg/mL. In addition, the MIC in assay [1], in assay [2] and in assay [3] was above 512 µg/mL each time.
As to `CCCCn1c(=O)c(C(=O)NC(c2ccccc2)c2ccccc2)c(O)c2nn(C)cc21` [Iu, 4-(1-Butyl)-4,5-dihydro-N-(diphenylmethyl)-7-hydroxy-2-methyl-5-oxo-2H-pyrazolo[4,3-b]pyridin-6-carboxamide], the Potentiation fold in assay [1] (A. baumannii ATCC 17978) was at least 16; in assay [2] (E. coli CCUG^T), at least 8; in assay [3] (K. pneumoniae ATCC 13833), at least 8. The figures for the “MIC in presence of colistin” value in assay [1] (A. baumannii ATCC 17978), in assay [2] (E. coli CCUG^T) and in assay [3] (K. pneumoniae ATCC 13833) were 32 µg/mL, 64 µg/mL and 64 µg/mL, respectively. For the same compound, the MIC in assay [1] (setting [8]), in assay [2] (setting [9]) and in assay [3] (setting [10]) was above 512 µg/mL in each case.
Consider `CCCCn1c(=O)c(C(=O)NC(C)(C)C)c(O)c2nn(CC)cc21` [Iw, 4-(1-Butyl)-4,5-dihydro-N-(1,1-dimethylethyl)-2-ethyl-7-hydroxy-5-oxo-2H-pyrazolo[4,3-b]pyridin-6-carboxamide], for which the Potentiation fold in assay [1] (A. baumannii ATCC 17978) is listed as at least 8; in assay [2] (E. coli CCUG^T), at least 32; in assay [3] (K. pneumoniae ATCC 13833), at least 16. Moreover, the figures for the “MIC in presence of colistin” value in assay [1] (A. baumannii ATCC 17978), in assay [2] (E. coli CCUG^T) and in assay [3] (K. pneumoniae ATCC 13833) were 64 µg/mL, 16 µg/mL and 32 µg/mL, respectively. The MIC in assay [1] (setting [8]), in assay [2] (setting [9]) and in assay [3] (setting [10]) was above 512 µg/mL in each case.
